# According to ChEMBL document CHEMBL1128268, “Tryptophan-derived NK1 antagonists: conformationally constrained heterocyclic bioisosteres of the ester linkage” (J Med Chem, 1995):
# Target: Substance-P receptor (Homo sapiens, UniProt P25103)
# Assay: Binding affinity at human Tachykinin receptor 1 expressed in CHO cells by [125 I]Trp8-substance P displacement.
# Assay type: cell-based
# Chain of Substance-P receptor (P25103 whole entry): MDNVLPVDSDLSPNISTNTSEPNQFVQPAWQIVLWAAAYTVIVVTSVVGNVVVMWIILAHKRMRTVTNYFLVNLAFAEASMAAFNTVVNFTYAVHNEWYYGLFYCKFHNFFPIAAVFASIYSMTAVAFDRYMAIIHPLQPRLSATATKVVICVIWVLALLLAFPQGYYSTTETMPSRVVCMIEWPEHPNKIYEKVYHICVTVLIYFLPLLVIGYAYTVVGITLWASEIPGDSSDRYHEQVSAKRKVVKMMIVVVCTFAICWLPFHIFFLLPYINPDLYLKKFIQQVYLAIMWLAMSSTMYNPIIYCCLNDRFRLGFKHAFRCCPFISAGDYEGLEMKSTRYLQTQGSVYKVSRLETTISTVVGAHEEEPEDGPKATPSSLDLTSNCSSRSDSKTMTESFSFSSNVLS
row,SMILES,IC50
1,O=C1NC(Cc2c[nH]c3ccccc23)CN1Cc1cc(C(F)(F)F)cc(C(F)(F)F)c1 (centres undefined),267 nM
2,C=CCC1(Cc2c[nH]c3ccccc23)OC(=O)N(Cc2cc(C(F)(F)F)cc(C(F)(F)F)c2)C1=O (centres undefined),31 nM
3,CC1(Cc2c[nH]c3ccccc23)OC(=O)N(Cc2cc(C(F)(F)F)cc(C(F)(F)F)c2)C1=O (centres undefined),11 nM
4,CN1C(=O)N(Cc2cc(C(F)(F)F)cc(C(F)(F)F)c2)C(=O)C1Cc1c[nH]c2ccccc12 (centres undefined),153 nM
5,Cc1cc(C)cc(CN2C(=O)OC(Cc3c[nH]c4ccccc34)C2=O)c1 (centres undefined),683 nM
6,O=C1CNC(Cc2c[nH]c3ccccc23)CN1Cc1cc(C(F)(F)F)cc(C(F)(F)F)c1 (centres undefined),243 nM
7,FC(F)(F)c1cc(CN2CCNC(Cc3c[nH]c4ccccc34)C2)cc(C(F)(F)F)c1 (centres undefined),567 nM
8,O=C1OC(Cc2c[nH]c3ccccc23)C(=O)N1Cc1cc(Cl)cc(Cl)c1 (centres undefined),273 nM
9,O=C1C(Cc2c[nH]c3ccccc23)N(C(=O)Nc2ccccc2)C(=O)N1Cc1cc(C(F)(F)F)cc(C(F)(F)F)c1 (centres undefined),220 nM
10,COc1cc(CN2C(=O)OC(Cc3c[nH]c4ccccc34)C2=O)cc(OC)c1 (centres undefined),7370 nM
11,O=C1OC(Cc2c[nH]c3ccccc23)C(=O)N1Cc1cccc(C(F)(F)F)c1 (centres undefined),2670 nM
12,O=C1NC(Cc2c[nH]c3ccccc23)CN(Cc2cc(C(F)(F)F)cc(C(F)(F)F)c2)C1=O (centres undefined),400 nM
13,O=C1NC(Cc2c[nH]c3ccccc23)C(=O)N1Cc1cc(C(F)(F)F)cc(C(F)(F)F)c1 (centres undefined),317 nM
14,O=C1CC(Cc2c[nH]c3ccccc23)C(=O)N1Cc1cc(C(F)(F)F)cc(C(F)(F)F)c1 (centres undefined),203 nM
15,CNC(=O)N1C(=O)N(Cc2cc(C(F)(F)F)cc(C(F)(F)F)c2)C(=O)C1Cc1c[nH]c2ccccc12 (centres undefined),63 nM
16,O=C1C(Cc2c[nH]c3ccccc23)N(Cc2ccccc2)C(=O)N1Cc1cc(C(F)(F)F)cc(C(F)(F)F)c1 (centres undefined),310 nM
17,O=C1OC(Cc2c[nH]c3ccccc23)C(=O)N1Cc1cc(F)cc(F)c1 (centres undefined),4280 nM
18,O=C1OC(Cc2c[nH]c3ccccc23)C(=O)N1Cc1cc(C(F)(F)F)cc(C(F)(F)F)c1 (racemic),22 nM
19,"O=C1OC(Cc2c[nH]c3ccccc23)C(=O)N1Cc1cc(C(F)(F)F)cc(C(F)(F)F)c1 (single isomer, unassigned; (-))",26 nM
